biological target: Squalene monooxygenase (Rattus norvegicus, UniProt P52020); assay: Compound was evaluated for its inhibitory activity against recombinant rat SE(squalene epoxidase)
Sequence (P52020 whole entry): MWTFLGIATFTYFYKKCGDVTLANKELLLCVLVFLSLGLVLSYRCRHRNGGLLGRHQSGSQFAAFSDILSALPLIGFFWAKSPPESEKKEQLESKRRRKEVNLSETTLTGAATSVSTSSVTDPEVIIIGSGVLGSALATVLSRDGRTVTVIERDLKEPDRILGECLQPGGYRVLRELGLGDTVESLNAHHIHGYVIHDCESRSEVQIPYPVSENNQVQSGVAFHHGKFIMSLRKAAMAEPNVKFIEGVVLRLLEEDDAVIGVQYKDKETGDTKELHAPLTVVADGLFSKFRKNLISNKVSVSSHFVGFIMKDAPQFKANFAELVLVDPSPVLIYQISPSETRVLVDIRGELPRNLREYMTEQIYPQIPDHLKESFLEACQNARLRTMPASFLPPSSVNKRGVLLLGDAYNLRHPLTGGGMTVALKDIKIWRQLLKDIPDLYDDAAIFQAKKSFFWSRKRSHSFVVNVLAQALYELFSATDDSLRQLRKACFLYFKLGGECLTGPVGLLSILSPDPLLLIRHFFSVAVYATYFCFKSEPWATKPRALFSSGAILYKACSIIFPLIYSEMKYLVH

| IC50 [µM] | SMILES |
| --- | --- |
| 5.1 | CC(C)=CCC/C(C)=C/CC/C(C)=C/CC/C=C(\C)CC/C=C(\C)CCCOC(=O)c1cc(O)c(O)c(O)c1 |
| 11.9 | O=C(OCCCCCCc1ccccc1)c1cc(O)c(O)c(O)c1 |
| 12.5 | CC(C)=CCC/C(C)=C/COC(=O)c1cc(O)c(O)c(O)c1 [Geranyl gallate] |
| 15.3 | O=C(OCCCCCCCCCCc1ccccc1)c1cc(O)c(O)c(O)c1 |
| 12.5 | O=C(OCCCCCCCCc1ccccc1)c1cc(O)c(O)c(O)c1 |
| 61.3 | O=C(OCCCCc1ccccc1)c1cc(O)c(O)c(O)c1 |
| 0.061 | CCCCCCCCCCCCOC(=O)c1cc(O)c(O)c(O)c1 [DODECYL GALLATE] |
| 4.5 | CC(C)=CCC/C(C)=C/CC/C(C)=C/CC/C(C)=C/COC(=O)c1cc(O)c(O)c(O)c1 |
| 1.5 | CC(C)=CCC/C(C)=C/CC/C(C)=C/COC(=O)c1cc(O)c(O)c(O)c1 |

| SMILES | IC50 [µM] |
| --- | --- |
| O=C(O[C@@H]1Cc2c(O)cc(O)cc2O[C@@H]1c1cc(O)c(O)c(O)c1)c1cc(O)c(O)c(O)c1 [EPIGALOCATECHIN GALLATE] | 0.69 |

Reference: ChEMBL document CHEMBL1132810, “Inhibition of vertebrate squalene epoxidase by isoprenyl gallates and phenylalkyl gallates” (Bioorg Med Chem Lett, 2000)
